One assay has as its system epidermal retinoids. To be noted: hairless mice, topical 0.05% for 7 days, then UVB 1 J/cm^2, cited from earlier work; for Prevention of photo-induced depletion of epidermal retinylic esters / retinoids: assayed 24 h after radiation.
A further assay deals with keratinocytes A431. As to the kind of experiment: Modulation of retinylic esters induced by retinoids in keratinocytes (HPLC). In kind it is cell-based. The note with it: for Retinol / Retinylic esters: incubation 24 to 72 h, averaged values; for Total: retinol plus retinylic esters. The protocol:
The study was carried out on keratinocytes A431 in a culture. Indeed, in these cells, no endogenous retinoid was measured. A retinoid has to be applied beforehand in order to measure cell retinoids. The retinoids were measured by HPLC. The incubation in the presence of various agents or combination of agents dissolved in 1% of ethanol in the culture medium, was carried out for 24 to 72 h. These are averaged values expressed in pmol/mg of protein.

Assay [1] deals with CD44 and hyaluronate in follicular and interfollicular epidermis. To be noted: topical application, mice; cited from earlier work.
A further assay addresses T1, glucocerebrosidase (Homo sapiens, UniProt P04062).
T1 sequence (P04062 40-536): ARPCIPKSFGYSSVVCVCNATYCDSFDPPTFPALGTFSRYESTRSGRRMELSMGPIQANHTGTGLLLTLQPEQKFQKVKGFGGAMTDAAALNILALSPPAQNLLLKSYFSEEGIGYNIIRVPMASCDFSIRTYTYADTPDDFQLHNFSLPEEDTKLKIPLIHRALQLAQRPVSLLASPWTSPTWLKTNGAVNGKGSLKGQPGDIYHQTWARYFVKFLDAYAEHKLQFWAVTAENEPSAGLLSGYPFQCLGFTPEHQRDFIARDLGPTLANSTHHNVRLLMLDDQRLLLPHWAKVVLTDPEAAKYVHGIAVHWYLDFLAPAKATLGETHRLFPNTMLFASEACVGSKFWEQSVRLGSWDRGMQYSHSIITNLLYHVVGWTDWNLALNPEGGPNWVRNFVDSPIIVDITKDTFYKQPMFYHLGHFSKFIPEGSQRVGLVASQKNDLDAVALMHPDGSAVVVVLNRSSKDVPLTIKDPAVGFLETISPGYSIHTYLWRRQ
To be noted: compared with reference 4-methylumbelliferyl glucopyranoside; cited from earlier work.

Where a SMILES comes first, the peptide text is derived from it.

Consider `CC1=C(/C=C/C(C)=C/C=C/C(C)=C/CO)C(C)(C)CCC1` [retinol, reference compound], for which the “Prevention of photo-induced depletion of epidermal retinylic esters / retinoids” value with epidermal retinoids was “prevent photo-induced depletion of epidermal retinylic esters”.

Take `CCCCCCCC/C=C\CCCCCCCC(=O)O` [OA, oleic acid]: in the assay on keratinocytes A431 (agent 15 μM in 1% ethanol), the Retinol was <10 pmol/mg of protein and the Retinylic esters was <10 pmol/mg of protein. Besides, the Total with keratinocytes A431 (agent 15 μM) is given as <10 pmol/mg of protein.

Regarding glycylglycine oleamide [OGG], in the assay on keratinocytes A431, the “Induction / modulation of retinylic esters and cell retinoids in keratinocytes (in words)” value (from here on “Induction / modulation”) was “significantly increased”. Also, in the assay on keratinocytes A431 (agent 15 μM in 1% ethanol), the Retinol was <10 pmol/mg of protein and the Retinylic esters was <10 pmol/mg of protein. Further, the Total in the assay on keratinocytes A431 (agent 15 μM) was <10 pmol/mg of protein.

As for `CC1=C(/C=C/C(C)=C/C=C/C(C)=C/C=O)C(C)(C)CCC1` [RAL, retinaldehyde], in the assay with epidermal retinoids, the “Prevention of photo-induced depletion of epidermal retinylic esters / retinoids” value is given as “prevent photo-induced depletion of epidermal retinylic esters” and the “Profile in the study of photo-induced depletion of retinoids” value was “best profile”. Besides, in the assay on keratinocytes A431, the “Induction / modulation” value is “induces a series of retinylic esters”. Besides, in the assay with keratinocytes A431 (agent 2 μM in 1% ethanol), the Retinol is 865 pmol/mg of protein and the Retinylic esters is listed as 280 pmol/mg of protein. Besides, the Total in the assay on keratinocytes A431 (agent 2 μM) is 1145 pmol/mg of protein. Also, in assay [1], the Epidermal hyperplasia result was “inducing epidermal hyperplasia”; the “Expression of CD44 and of hyaluronate versus retinoic acid and retinol” value is reported as “more strongly increased”.

Take `CCCCCCCCCCCCCCCC(=O)OC/C=C(C)/C=C/C=C(C)/C=C/C1=C(C)CCCC1(C)C` [ROL-Pal, retinyl palmitate]: the “Induction / modulation” value in the assay with keratinocytes A431 is “less cell retinoids than retinaldehyde”. In the assay on keratinocytes A431 (agent 15 μM in 1% ethanol), the Retinol is recorded as 389 pmol/mg of protein and the Retinylic esters was 178 pmol/mg of protein. Besides, the Total in the assay with keratinocytes A431 (agent 15 μM) was 567 pmol/mg of protein.

As for `Cc1cc(O[C@@H]2O[C@H](CO)[C@@H](O)[C@H](O)[C@H]2O)cc2c1O[C@](C)(CCC[C@H](C)CCC[C@H](C)CCCC(C)C)CC2` [delta-tocopherol-glucopyranoside], at glucocerebrosidase, the “Release of delta-tocopherol on enzymatic hydrolysis” value is reported as “slowly releases delta-tocopherol”.

As to `NCC(=O)NCC(=O)O` [GG, glycylglycine] (H-Gly-Gly-OH), in the assay on keratinocytes A431 (agent 15 μM in 1% ethanol), the Retinol is on record as <10 pmol/mg of protein and the Retinylic esters is on record as <10 pmol/mg of protein. For the same compound, the Total in the assay with keratinocytes A431 (agent 15 μM) was <10 pmol/mg of protein.
